Source: US20190071670A1, “Methods Of Treatment For Alpha-1 Antitrypsin Deficiency” (Arrowhead Pharmaceuticals, Inc., priority 2016, published 2019)

How the values were obtained:
Format in all cases: in vivo, human (expressed in PiZ mice)
[1] = test system: Z-AAT globules; assay: PAS-D staining and digital quantitation of Z-AAT globules in PiZ mouse liver; settings: for area of the liver covered with globules reduced / smaller globules: 6 month old female PiZ mice, single IV 8 mg/kg + 8 mg/kg MLP delivery polymer
Procedure: AAT RNAi agent was administered to PiZ mice. Each mouse received a biweekly administration of an intravenous (IV) dose of 8 mg/kg AAT RNAi agent with 8 mg/kg of MLP delivery polymer for 8 weeks. Mice were bled weekly to monitor hAAT levels in serum and were sacrificed on day 57 after administration of AAT RNAi agent with MLP delivery polymer. Liver samples were harvested and fixed in 10% neutral-buffered formalin and embedded in paraffin. Inflammatory infiltration was assessed by H&E staining. […] PiZ mice injected biweekly with saline had significant globule accumulation as well as inflammatory infiltration around damaged or dead hepatocytes. Aggregation of Z-hAAT was visualized by performing diastase-resistant periodic acid Schiff (PAS-D) staining on liver sections. Diastase digestion of glycogen prior to performing a PAS stain allows positive staining of Z-AAT protein accumulation, or “globules”. […] The number of globules, the size of the globules and the area of the liver covered by globules was digitally quantitated from liver specimens stained with PAS-D. Mice treated with AAT RNAi agent had 85% fewer globules, 85% smaller globules, and 96% less area of the liver covered with globules than saline-injected controls (FIG. 3).
(§1) Human AAT protein levels in serum were monitored for 29 days. At the indicated times, blood samples were collected and assayed for hAAT by ELISA. Day 1 samples were collected prior to trigger administration. For mRNA analysis, 3-4 mice were euthanized at each of days 3, 8, 15, 22, and 29. For euthanized mice, cardiac stick were performed for serum isolation for AAT ELISA (200 μl serum). Half of the left lateral liver lobe was collected and snap-freeze in liquid nitrogen for RNA isolation. The remainder of the left lobes were embedded into paraffin blocks for PAS-D staining with hematoxylin as counter-stain. Serum hAAT levels in mice given AAT Duplex Pair SEQ ID NO: 5/6 were 95% reduced on day 8 and remained reduced to day 29, at which time they were 79% reduced. Mice given AAT Duplex Pair SEQ ID NO: 5/6 were euthanized at either day 3, 8, 15, 22 or 29. Mice given saline or Luciferase siRNA control (SEQ ID 7/8) were euthanized on day 29. Levels of hAAT mRNA in the livers were measured by RT-qPCR. The hAAT mRNA in mice given AAT Duplex Pair SEQ ID NO: 5/6 was reduced by 97% on day 3 and remained reduced on day 29, at which time levels were 56% reduced. The size of the globules and the area of the liver covered by globules was digitally quantitated from liver specimens stained with PAS-D. Duplex Pair SEQ ID NO: 5/6 treated mice had 70% smaller globules at day 15 and 62% smaller globules at day 29. The area of the liver covered with globules was 83% reduced on day 15 and 72% reduced on day 29 (FIG. 5).

[2] = test system: Z-hAAT; assay: Semi-quantitative Western blot of soluble (monomer) and insoluble (polymer) Z-hAAT in PiZ mouse liver
Procedure: A modified western blot protocol was used to separate the soluble and insoluble Z-hAAT fractions under non-denaturing conditions as previously described (Mueller et al. Molecular Therapy 2012).
PiZ mice treated biweekly with 8 mg/kg AAT RNAi agent for 32 weeks were compared with mice at start of study (baseline) and control mice injected for 32 weeks with saline vehicle. Monomeric and polymeric Z-hAAT protein in the livers of these mice were compared by semi-quantitative Western blotting (FIG. 7). […] Monomeric Z-AAT was reduced by 90% and polymeric Z-AAT was reduced by 48% in the AAT RNAi agent treated mice (p<0.0001).
One animal from each of Groups 2, 3, and 4 died prior to completion of the study. After sacrifice, monomeric and polymeric Z-hAAT protein in the livers of these mice were compared by semi-quantitative Western blotting over a course of 3 separate runs. Western blot Run 1 included six mice from Group 1, four mice from Group 2, and five mice from Group 4. Western blot Run 2 includes three mice from Group 1, six mice from Group 3 and 5 mice from Group 5. Western blot Run 3 includes three mice from Group 1, 2 mice from Group 4, 2 mice from Group 5, 7 mice from Group 6.

[3] = test system: hAAT mRNA; assay: Liver hAAT mRNA levels in PiZ mice (RT-qPCR); settings: for hAAT mRNA in liver reduced: 6 month old female PiZ mice, single IV 8 mg/kg + 8 mg/kg MLP delivery polymer; for Average relative mRNA level (hAAT) / hAAT mRNA level: PiZ mice liver; for Average relative mRNA level (hAAT): one injection 8 mg/kg + 8 mg/kg MLP delivery polymer; for hAAT mRNA level: single IV 6 mg/kg with 6 mg/kg MLP delivery polymer, relative to mouse β-actin mRNA
Procedure: Compositions comprising double-stranded AAT expression-inhibiting oligomeric compounds were administered to PiZ mice. PiZ mice harbor the human PiZ AAT mutant allele and model human AATD (Carlson et al. Journal of Clinical Investigation 1989). […] Liver hAAT mRNA production was measured at days 3 and 10. Reduced mRNA levels correlated with decreased serum hAAT protein levels, except that mRNA reduction preceded protein reduction by a few days. The level of liver hAAT mRNA production was measured at day 3 and day 10 following a single dose of AAT RNAi agent with MLP delivery polymer in PiZ mice. A sustained decrease in liver hAAT mRNA levels was observed that correlated with the decrease observed in serum hAAT protein levels.
as §1

[4] = PiZ mice, four biweekly IV doses 8 mg/kg with 8 mg/kg MLP delivery polymer over 8 weeks, PAS-D
[5] = Western blot Run 1, Group 4 (n = 5): male PiZ mice, 8 mg/kg + 4 mg/kg MLP, 20 × q2w, euthanized Week 39
[6] = male PiZ mice liver, biweekly 8 mg/kg (with MLP) for 32 weeks, p<0.0001

Duplex Pair SEQ ID NO: 5/6: double-stranded AAT RNAi agent: modified antisense strand SEQ ID NO: 5 annealed to Chol-TEG sense strand SEQ ID NO: 6 (antisense TGGAACUUGGUGAUGAUAUTT; sense UAUAUAUCAUCACCAAGUUCCAT; Chol-TEG on sense strand; chemical modifications; antisense strand of dsRNA; modified_base 7 /mod_base = “2′-3′ seco corresponding nucleotide”; modified_base 2,4,6,8,10,12,14,16,18 /mod_base = “2′-deoxy-2′-fluoro corresponding nucleoside”; modified_base 3,5,9,11,13,15,17,19 /mod_base = “2′-O-methyl corresponding nucleoside”; modified_base 21 /mod_base = “5′-phosphorothioate corresponding nucleotide”; sense strand of dsRNA; modified_base 2 /mod_base = “2′-hydroxy corresponding nucleoside”; modified_base 4,6,8,10,12,14,16,18,20,22 /mod_base = “2′-deoxy-2′-fluoro corresponding nucleoside”; …)
area of the liver covered with globules reduced ([1]; day 15): 83%
smaller globules ([1]; day 15): 70%
area of the liver covered with globules reduced ([1]; day 29): 72%
smaller globules ([1]; day 29): 62%
fewer globules (number of globules) than saline-injected controls [1, 4]: 85%
less area of the liver covered with globules than saline-injected controls [1, 4]: 96%
smaller globules (size of the globules) than saline-injected controls [1, 4]: 85%
Z-hAAT monomeric protein, Average (Standard deviation) [2, 5]: 71.4 (15.6)
Z-hAAT monomeric protein, Average Normalized to Baseline (Group 1) [2, 5]: 0.126
Z-hAAT monomeric protein, Average Normalized to Saline (Group 2) [2, 5]: 0.152
Z-hAAT polymeric protein, Average (Standard deviation) [2, 5]: 1809.1 (932.5)
Z-hAAT polymeric protein, Average Normalized to Baseline (Group 1) [2, 5]: 0.419
Z-hAAT polymeric protein, Average Normalized to Saline (Group 2) [2, 5]: 0.238
Z-AAT polymer burden and diseased liver morphology ([2]; male PiZ mice 11-17 weeks old, biweekly 4, 8 or 12 mg/kg with MLP delivery polymer (2:1) for 16, 24 or 32-33 weeks): a reduction in the Z-AAT polymer burden and a reduction in the diseased liver morphology
Monomeric Z-AAT reduced [2, 6]: 90%
polymeric Z-AAT reduced [2, 6]: 48%
hAAT mRNA in liver reduced ([3]; day 3): 97%
hAAT mRNA in liver reduced ([3]; day 29): 56%
Average relative mRNA level (hAAT) ([3]; Day 3): 0.030
Average relative mRNA level (hAAT) ([3]; Day 8): 0.032
Average relative mRNA level (hAAT) ([3]; Day 15): 0.158
Average relative mRNA level (hAAT) ([3]; Day 22): 0.221
Average relative mRNA level (hAAT) ([3]; Day 29): 0.439
hAAT mRNA level ([3]; day 3): 0.025 ± 0.02
hAAT mRNA level ([3]; day 10): 0.055 ± 0.02
